Consider one compound from article PMC9738107, “Targeting of the ELR+CXCL/CXCR1/2 Pathway Is a Relevant Strategy for the Treatment of Paediatric Medulloblastomas” (Cells, 2022).

Assay [1] concerns uveal melanoma cells (Mel202). Details: method as in PMID 24676409. The settings on record: Mel202, low expression of CXCR1/2; cited from earlier work.
The test system of another assay is Daoy cells. Put plainly: Spheroid invasion, 3D culture. It is filed as cell-based, human. Particulars: 1 µM, from day 2. The procedure: (§1) Figure 4 C29 reduces proliferation, migration, and invasion of naïve MB cells. (A) Proliferation of Daoy, ONS-76, HD-MB03, and D341Med wild-type cells after treatment with 1 μM C29 or the control (DMSO), n = 3. (B) Clonogenic assay on Daoy (n = 4), ONS-76 (n = 3) and HD -MB03 (n = 5) cells after treatment with control (DMSO) or C29 (1 μM or 2.5 μM). Scale = 500 μm. (C) Cell migration through the Boyden chamber of Daoy and ONS-76 cells specifically attracted by 200 ng/mL CXCL8. Results are expressed as percentage of control (DMSO) (n = 3). Scale = 1000 μm. (D) Spheroid invasion using 3D culture cell assays on Daoy (n = 4) and ONS-76 cells (n = 3) treated with control (DMSO) or C29 at a concentration of 1 μM on day 0, 1, and 2. Results are expressed as percentage of day 0, n = 4. Scale = 500 μm. Statistics were performed using Student t-test for 2 comparisons only or ANOVA test for multiple comparisons. * p < 0.05, ** p < 0.01, *** p < 0.001. […]
(§2) each month by using PlasmoTest Kit (#10L07‐MM, InvivoGen, Toulouse, France). Daoy and ONS‐76 belong to the Shh genetic subgroup, D341‐Med and HD‐MB03 to group 3. […]
(§3) (1, 2∙5, 5μM) for 48 hours. […]
(§4) 5000 cells were plated in 48 multi‐well plates coated with agarose 0∙8%. […] Images were recorded each day with the Evos XL Core Cell Imaging system (Thermo Fisher).

In a further assay the test system is ONS-76 cells. Put plainly: Spheroid invasion, 3D culture. It is filed as cell-based, human. Particulars: ONS-76, 1 µM, from day 7. As for the experimental part:
as §1, §2, §3, §4

In assay [2] the test system is Primary mouse astrocytes (C8D1A). The assay can be described thus: IC50 on normal cells (XTT / cell death by PI staining). It is filed as cell-based. The settings on record: C8-D1A, 48 h of treatment. An excerpt: We then determined the selectivity index (SI), which is the IC50 value for normal cells divided by the IC50 value for tumour cells, to assess the overall toxicity on normal tissues. These IC50 values determined by XTT assays or measurement of cell death by PI staining were nearly equivalent (Figure 3E,F). Primary mouse astrocytes (C8D1A) were selected based on their nervous system lineage. […] The SI was thus 6.44 for Daoy, 2.84 for ONS-76, 10.7 for HD-MB03, and 3.94 for D341Med, indicating selectivity towards tumour cell death at the doses considered. These values are also consistent with those determined for renal cancer cells. […]
(§5) 1500 Daoy, ONS ‐76, HD ‐MB03 or D341 Med cells were sown in triplicate in plates with six wells and the cells were counted daily for 8 days using a Coulter counter (Ville‐ pinte). The relative number of cells (compared to day 1) was determined daily. […]
Y = Y0 * exp(k * X) (Y= Cell number at day X; Y0= Cell number at day 0 (graphically calculated); X= Day following cell plating (cells plated at X0=0); k= Exponential growth constant rate. Doubling times were compared.
150 Daoy/DR1/DR2/ ONS ‐ 76 and 300 HD ‐ MB03/HR1/HR2 cells were seeded in trip‐ licate in 6‐well plates in the presence or absence of treatment (1 or 2∙5μM MCK140 or DMSO as control). […] The number of clones was quantified using ImageJ software. […]

For assay [3], the system named is Daoy, ONS-76, HD-MB03, and D341Med wild-type cells. Put plainly: Cell proliferation assay (cell counting). It is filed as cell-based, human. The settings on record: 1 µM C29, pre-incubation prior to cell seeding, all tested cell lines. As for the experimental part:
To confirm the efficacy of C29 on various parameters of cancer cell aggressiveness, we first performed cell proliferation assays at longer time points.
Figure 4 C29 reduces proliferation, migration, and invasion of naïve MB cells. (A) Proliferation of Daoy, ONS-76, HD-MB03, and D341Med wild-type cells after treatment with 1 μM C29 or the control (DMSO), n = 3. (B) Clonogenic assay on Daoy (n = 4), ONS-76 (n = 3) and HD -MB03 (n = 5) cells after treatment with control (DMSO) or C29 (1 μM or 2.5 μM). Scale = 500 μm. (C) Cell migration through the Boyden chamber of Daoy and ONS-76 cells specifically attracted by 200 ng/mL CXCL8. Results are expressed as percentage of control (DMSO) (n = 3). […] Results are expressed as percentage of day 0, n = 4. […]
as §5
Y = Y0 * exp(k * X) (Y= Cell number at day X; Y0= Cell number at day 0 (graphically calculated); X= Day following cell plating (cells plated at X0=0); k= Exponential growth constant rate. Doubling times were compared. […]
were seeded in 6‐well plates. […] Cell death was detected by PE chan‐ nel using FACS Cytoflex (Beckman) immediately after labelling the cells with 1ug/ml pro‐ pidium iodide (Miltenyi Biotec). […]

In the case of `O=C(Nc1cccc(Cl)c1)Nc1nc2ccc([N+](=O)[O-])cc2s1` [C29, 1-(3-chlorophenyl)-3-(6-nitrobenzo[d]thiazol-2-yl) urea], the “Effect on proliferation and survival” value in assay [1] is on record as “no effect”. Besides, the Spheroid invasion ability entry in the assay with Daoy cells and in the assay with ONS-76 cells was “affected the invasion ability” in each case. In assay [2], this compound returned an IC50 of 19.3 µM. Moreover, in assay [3], the Proliferation entry is reported as “completely inhibited proliferation”.
